Assay results as given in ChEMBL document CHEMBL1158920, “Tubulosine: an antitumor constituent of Pogonopus speciosus” (J Nat Prod, 1990).
Converted amounts (≈) assume the structure as drawn.

Assays:
[1] = tested on: Agrobacterium tumefaciens; experiment: Antitumor activity against Agrobacterium tumefaciens-induced crown gall tumors in potato by disk test; assay type: functional
[2] = Cytotoxicity against mouse 9PS cells; assay type: functional
HT-29 = experiment: Cytotoxicity against human HT-29 cells; assay type: functional
Artemia = experiment: Toxicity in brine shrimp; assay type: organism-based; settings: in vivo
[3] = Cytotoxicity against human 9KB cells; assay type: functional; settings: read-out: ED50 (the source's name)
A549 = experiment: Cytotoxicity against human A549 cells; assay type: functional
MCF7 = experiment: Cytotoxicity against human MCF7 cells; assay type: functional
[4] = In vivo antitumor activity against mouse 3PS cells at 0.25 mg/kg, relative to control; assay type: functional

SMILES	inhibition (INH) [1]	ED50 [2]	ED50 (HT-29)	LC50 (Artemia)	EC50 [3]	ED50 (A549)	ED50 (MCF7)	T/C [4]	EC50 ([2]; Mus musculus, read-out: ED50 (the source's name))	EC50 (HT-29; Homo sapiens, HT-29, read-out: ED50 (the source's name))	EC50 (A549; Homo sapiens, A549, read-out: ED50 (the source's name))	EC50 (MCF7; Homo sapiens, MCF7, read-out: ED50 (the source's name))
CC[C@H]1CN2CCc3cc(OC)c(OC)cc3[C@@H]2C[C@@H]1C[C@H]1NCCc2c1[nH]c1ccc(O)cc21 [TUBULOSINE]	81%	3.8 ×10⁻⁴ ug/ml	<1 ×10⁻⁵ ug/ml	0.02 ppm	0.01 µg/mL (≈ 0.021 µM)	<1 ×10⁻⁵ ug/ml	<1 ×10⁻⁵ ug/ml	186%				
CC[C@H]1CN2CCc3cc(OC)c(OC)cc3[C@@H]2C[C@@H]1CC1=NCCc2cc(O)c(OC)cc21 [PSYCHOTRINE]				> 1000 ppm					1 µg/mL (≈ 2.15 µM)	> 10 µg/mL	> 10 µg/mL	> 10 µg/mL
